Like-named read-outs stand apart in the source and are kept apart here.

Assay in all cases: AK assay 384-well format, Prestwick library screening
For assay [1], the system named is A. baumannii strain 98-37-09. It counts as cell-based, Acinetobacter baumannii. The following applies: 50 μM final drug concentration; for fold induction at 50 µM: Acinetobacter baumannii, 983709, 3 h.
A further assay relates to P. aeruginosa. In kind it is cell-based, Pseudomonas aeruginosa. Particulars: 50 μM final drug concentration; for fold induction at 50 µM: Pseudomonas aeruginosa, 3 h.
The next assay concerns E. coli. In kind it is cell-based, Escherichia coli. The following applies: 50 μM final drug concentration; for fold induction at 50 µM: Escherichia coli, 3 h.
A further assay has as its system K. pneumoniae. In kind it is cell-based, Klebsiella pneumoniae. The following applies: 50 μM final drug concentration; for fold induction at 50 µM: Klebsiella pneumoniae, 3 h.
In assay [2] the test system is S. aureus strain USA300-0114. It counts as cell-based, Staphylococcus aureus. Particulars: 50 μM final drug concentration; for fold induction at 50 µM: Staphylococcus aureus, USA300, 3 h.
The test system of the next assay is E. faecium. In kind it is cell-based, Enterococcus faecium. Particulars: 50 μM final drug concentration; for fold induction at 50 µM: Enterococcus faecium, 3 h.
In another assay the test system is E. cloacae. In kind it is cell-based, Enterobacter cloacae. The following applies: 50 μM final drug concentration; for fold induction at 50 µM: Enterobacter cloacae, 3 h.
Where [3] appears, read: planktonic, cutoff for positive-scoring molecules 3-fold increase.
Setting [4] is: planktonic A. baumannii, positive cutoff 3-fold increase, read-out: AK-based Prestwick library screening result, A. baumannii (fold increase in extracellular AK activity).
Where [5] appears, read: planktonic P. aeruginosa, positive cutoff 3-fold increase, read-out: AK-based Prestwick library screening result, P. aeruginosa (fold increase in extracellular AK activity).
Setting [6] is: planktonic E. coli, positive cutoff 3-fold increase, read-out: AK-based Prestwick library screening result, E. coli (fold increase in extracellular AK activity).
Where [7] appears, read: planktonic K. pneumoniae, positive cutoff 3-fold increase, read-out: AK-based Prestwick library screening result, K. pneumoniae (fold increase in extracellular AK activity).
Where [8] appears, read: planktonic S. aureus, positive cutoff 3-fold increase, read-out: AK-based Prestwick library screening result, S. aureus (fold increase in extracellular AK activity).
[9] abbreviates: planktonic E. faecium, positive cutoff 3-fold increase, read-out: AK-based Prestwick library screening result, E. faecium (fold increase in extracellular AK activity).
Setting [10] is: planktonic E. cloacae, positive cutoff 3-fold increase, read-out: AK-based Prestwick library screening result, E. cloacae (fold increase in extracellular AK activity).
Setting [11] is: cutoff for positive-scoring molecules 3-fold increase.

Turning to `C[C@H](CCC(=O)NCC(=O)O)[C@H]1CC[C@H]2[C@@H]3[C@H](O)C[C@@H]4C[C@H](O)CC[C@]4(C)[C@H]3C[C@H](O)[C@]12C` [Glycocholic acid], the fold induction at 50 µM in assay [1] (planktonic, cutoff for positive 3-fold increase, read-out: AK-based Prestwick Library Screening Results, A. baumannii (fold increase in extracellular AK activity)) worked out at 1.1; in the assay on P. aeruginosa (planktonic, cutoff for positive 3-fold increase, read-out: AK-based Prestwick Library Screening Results, P. aeruginosa (fold increase in extracellular AK activity)), 1.1; in the assay with E. coli (planktonic, cutoff for positive 3-fold increase, read-out: AK-based Prestwick Library Screening Results, E. coli (fold increase in extracellular AK activity)), 1.1; with K. pneumoniae (planktonic, cutoff for positive 3-fold increase, read-out: AK-based Prestwick Library Screening Results, K. pneumoniae (fold increase in extracellular AK activity)), 1; in assay [2] (planktonic, cutoff for positive 3-fold increase, read-out: AK-based Prestwick Library Screening Results, S. aureus (fold increase in extracellular AK activity)), 1.2; with E. faecium (planktonic, cutoff for positive 3-fold increase, read-out: AK-based Prestwick Library Screening Results, E. faecium (fold increase in extracellular AK activity)), 1.1. Further, in the assay on E. cloacae (planktonic, cutoff for positive 3-fold increase, read-out: AK-based Prestwick Library Screening Results, E. cloacae (fold increase in extracellular AK activity)), the fold induction at 50 µM worked out at 1.4.

With `C[C@]12CC[C@H](O)C[C@H]1CC[C@@H]1[C@@H]2C[C@@H](O)[C@]2(C)[C@@H](C3=CC(=O)OC3)CC[C@]12O` [Digoxigenin], the fold induction at 50 µM was 0.6 in assay [1] (planktonic, cutoff for positive-scoring molecules 3-fold increase, read-out: AK-based Prestwick Library Screening Results, A. baumannii (fold increase in extracellular AK activity)); 0.5 in the assay with P. aeruginosa (planktonic, cutoff for positive-scoring molecules 3-fold increase, read-out: AK-based Prestwick Library Screening Results, P. aeruginosa (fold increase in extracellular AK activity)); 0.7 in the assay with E. coli (planktonic, cutoff for positive-scoring molecules 3-fold increase, read-out: AK-based Prestwick Library Screening Results, E. coli (fold increase in extracellular AK activity)); 0.6 with K. pneumoniae (planktonic, cutoff for positive-scoring molecules 3-fold increase, read-out: AK-based Prestwick Library Screening Results, K. pneumoniae (fold increase in extracellular AK activity)); 0.6 in assay [2] (planktonic, cutoff for positive-scoring molecules 3-fold increase, read-out: AK-based Prestwick Library Screening Results, S. aureus (fold increase in extracellular AK activity)); 0.8 with E. faecium (planktonic, cutoff for positive-scoring molecules 3-fold increase, read-out: AK-based Prestwick Library Screening Results, E. faecium (fold increase in extracellular AK activity)). Moreover, the fold induction at 50 µM with E. cloacae (planktonic, cutoff for positive-scoring molecules 3-fold increase, read-out: AK-based Prestwick Library Screening Results, E. cloacae (fold increase in extracellular AK activity)) is 0.7.

Regarding Beta-Escin, the “AK-based Prestwick Library Screening Results, A. baumannii (fold increase in extracellular AK activity)” value in assay [1] (setting [3]) is 0.8. Also, the “AK-based Prestwick Library Screening Results, P. aeruginosa (fold increase in extracellular AK activity)” value in the assay with P. aeruginosa (setting [3]) is given as 0.7. For the same compound, the “AK-based Prestwick Library Screening Results, E. coli (fold increase in extracellular AK activity)” value in the assay with E. coli (setting [3]) is 0.9. Further, the “AK-based Prestwick Library Screening Results, K. pneumoniae (fold increase in extracellular AK activity)” value in the assay with K. pneumoniae (setting [3]) turned out to be 0.7. The “AK-based Prestwick Library Screening Results, S. aureus (fold increase in extracellular AK activity)” value in assay [2] (setting [3]) stood at 0.8. Further, in the assay with E. faecium (setting [3]), the “AK-based Prestwick Library Screening Results, E. faecium (fold increase in extracellular AK activity)” value was found to be 0.9. In addition, the “AK-based Prestwick Library Screening Results, E. cloacae (fold increase in extracellular AK activity)” value in the assay on E. cloacae (setting [3]) is listed as 1.4.

For the compound `C=C(C)[C@@H]1CC[C@]2(CO)CC[C@]3(C)[C@H](CC[C@@H]4[C@@]5(C)CC[C@H](O)C(C)(C)[C@@H]5CC[C@]43C)[C@@H]12` [Betulin], the fold induction at 50 µM stood at 0.8 in assay [1] (setting [4]); 0.7 in the assay on P. aeruginosa (setting [5]); 0.8 in the assay with E. coli (setting [6]); 0.7 with K. pneumoniae (setting [7]); 0.3 in assay [2] (setting [8]); 0.9 in the assay on E. faecium (setting [9]). For the same compound, the fold induction at 50 µM in the assay on E. cloacae (setting [10]) stood at 1.3.

In the case of `O=C1O[C@H]([C@@H](O)CO)C(O)=C1O` [Ascorbic acid], the fold induction at 50 µM in assay [1] (planktonic A. baumannii, 384-well, cutoff for positive-scoring molecules 3-fold increase, read-out: AK-based Prestwick Library Screening Results: A. baumannii (increase in extracellular AK activity)) was determined as 0.4; with P. aeruginosa (planktonic P. aeruginosa, 384-well, cutoff for positive-scoring molecules 3-fold increase, read-out: AK-based Prestwick Library Screening Results: P. aeruginosa (increase in extracellular AK activity)) it was 0.3; in the assay with E. coli (planktonic E. coli, 384-well, cutoff for positive-scoring molecules 3-fold increase, read-out: AK-based Prestwick Library Screening Results: E. coli (increase in extracellular AK activity)), 0.5; in the assay on K. pneumoniae (planktonic K. pneumoniae, 384-well, cutoff for positive-scoring molecules 3-fold increase, read-out: AK-based Prestwick Library Screening Results: K. pneumoniae (increase in extracellular AK activity)) it was 0.5; in assay [2] (planktonic S. aureus, 384-well, cutoff for positive-scoring molecules 3-fold increase, read-out: AK-based Prestwick Library Screening Results: S. aureus (increase in extracellular AK activity)), 0.4; with E. faecium (planktonic E. faecium, 384-well, cutoff for positive-scoring molecules 3-fold increase, read-out: AK-based Prestwick Library Screening Results: E. faecium (increase in extracellular AK activity)) it was 0.9. Also, in the assay with E. cloacae (planktonic E. cloacae, 384-well, cutoff for positive-scoring molecules 3-fold increase, read-out: AK-based Prestwick Library Screening Results: E. cloacae (increase in extracellular AK activity)), the fold induction at 50 µM was 0.4.

As to `N[C@@H]1CONC1=O` [D-cycloserine], the “AK-based Prestwick library screening result, A. baumannii (fold increase in extracellular AK activity)” value in assay [1] (planktonic A. baumannii, positive cutoff 3-fold increase) is given as 1.0. The “AK-based Prestwick library screening result, P. aeruginosa (fold increase in extracellular AK activity)” value with P. aeruginosa (planktonic P. aeruginosa, positive cutoff 3-fold increase) came out at 1.2. Besides, the “AK-based Prestwick library screening result, E. coli (fold increase in extracellular AK activity)” value with E. coli (planktonic E. coli, positive cutoff 3-fold increase) came to 1.4. Moreover, the “AK-based Prestwick library screening result, K. pneumoniae (fold increase in extracellular AK activity)” value with K. pneumoniae (planktonic K. pneumoniae, positive cutoff 3-fold increase) was 1.1. For the same compound, in assay [2] (planktonic S. aureus, positive cutoff 3-fold increase), the “AK-based Prestwick library screening result, S. aureus (fold increase in extracellular AK activity)” value was 1.4. Further, the “AK-based Prestwick library screening result, E. faecium (fold increase in extracellular AK activity)” value in the assay with E. faecium (planktonic E. faecium, positive cutoff 3-fold increase) worked out at 1.2. For the same compound, the “AK-based Prestwick library screening result, E. cloacae (fold increase in extracellular AK activity)” value in the assay on E. cloacae (planktonic E. cloacae, positive cutoff 3-fold increase) is 1.2.

Consider `C[C@]12CC[C@H]3[C@@H](CCC4=CC(=O)CC[C@@]43C)[C@@H]1CC[C@@H]2C(=O)CO` [Deoxycorticosterone], for which, in assay [1] (setting [11]), the “AK-based Prestwick Library Screening Results, A. baumannii (fold increase in extracellular AK activity)” value was 1.3. In the assay on P. aeruginosa (setting [11]), the “AK-based Prestwick Library Screening Results, P. aeruginosa (fold increase in extracellular AK activity)” value is on record as 1.3. In addition, in the assay on E. coli (setting [11]), the “AK-based Prestwick Library Screening Results, E. coli (fold increase in extracellular AK activity)” value came out at 1.2. The “AK-based Prestwick Library Screening Results, K. pneumoniae (fold increase in extracellular AK activity)” value with K. pneumoniae (setting [11]) was determined as 1.2. Besides, the “AK-based Prestwick Library Screening Results, S. aureus (fold increase in extracellular AK activity)” value in assay [2] (setting [11]) was 1.6. Moreover, the “AK-based Prestwick Library Screening Results, E. faecium (fold increase in extracellular AK activity)” value with E. faecium (setting [11]) was 1.2. Also, the “AK-based Prestwick Library Screening Results, E. cloacae (fold increase in extracellular AK activity)” value in the assay on E. cloacae (setting [11]) was determined as 1.3.

With `COC(=O)C1=C(C)NC(C)=C(C(=O)OC(C)C)C1c1cccc2nonc12` (stereo not drawn) [Isradipine], the fold induction at 50 µM in assay [1] (setting [4]) came out at 1.2; with P. aeruginosa (setting [5]), 1.1; with E. coli (setting [6]), 1.1; in the assay with K. pneumoniae (setting [7]), 1.1; in assay [2] (setting [8]), 0.7; in the assay on E. faecium (setting [9]) it was 1.1. For the same compound, the fold induction at 50 µM with E. cloacae (setting [10]) turned out to be 1.4.

Take `CO[C@H](C)[C@](O)(C(=O)OCC1=CCN2CC[C@H](O)[C@@H]12)C(C)C` [Heliotrine]: the fold induction at 50 µM in assay [1] (planktonic, […], read-out: AK-based Prestwick Library Screening Results, A. baumannii (fold increase in extracellular AK activity)) was 1; with P. aeruginosa (planktonic, […], read-out: AK-based Prestwick Library Screening Results, P. aeruginosa (fold increase in extracellular AK activity)) it was 1; in the assay on E. coli (planktonic, […], read-out: AK-based Prestwick Library Screening Results, E. coli (fold increase in extracellular AK activity)), 1.2; in the assay with K. pneumoniae (planktonic, […], read-out: AK-based Prestwick Library Screening Results, K. pneumoniae (fold increase in extracellular AK activity)) it was 1; in assay [2] (planktonic, […], read-out: AK-based Prestwick Library Screening Results, S. aureus (fold increase in extracellular AK activity)), 1.4; in the assay on E. faecium (planktonic, […], read-out: AK-based Prestwick Library Screening Results, E. faecium (fold increase in extracellular AK activity)) it was 1. Also, in the assay on E. cloacae (planktonic, […], read-out: AK-based Prestwick Library Screening Results, E. cloacae (fold increase in extracellular AK activity)), the fold induction at 50 µM was 1.7.

The record behind these values is patent US10004701B2, “Methods and compositions for treating infection” (UNIVERSITY OF ROCHESTER, priority 2012, dated 2018).
